Measurements: patent US20220241314A1, “COMPOSITIONS AND METHODS FOR TREATMENT OF HEPATITIS B VIRUS INFECTION” (priority 2019, published 2022)

Test system: HBV cccDNA
Assay: Decay kinetics of established cccDNA and HBsAg secretion under treatment from 3 dpi to 20 dpi
Type: cell-based, HBV (Genotype D)
Details: HepG2-hNTCP, treatment from 3 dpi through 20 dpi
Procedure: (5A) HBV infection and treatment schedule. On day 0 HepG2-hNTCP cells were infected with HBV at moi of 1000 Geq/cell, incubated for 24 hr, and media was replaced. On day three the cells were harvested or treated with DMSO, ETV (500 nM), F7 (10 μM), poly-U/UC (100 ng/ml), or with ETC combination with F7 or poly-U/UC, PAMP. Cells were harvested at the indicated points over a 20-day time course. (5B), (5C) DNA was isolated by Hirt extract and subjected to Southern blot analysis using an HBV-specific DNA probe. Percentage values below each lane indicate the relative amount of cccDNA compared to day three control prior to each treatment. The positions of mass markers are indicated. (5D) cccDNA levels were measured by RT-qPCR. Relative cccDNA values to mitochondrial DNA (MT-CO3) are shown. Statistical significance was determined using Student's t test. Data are presented as mean standard deviation (SD), *P<0.01, **P<0.005, ***P<0.001 and ns=non-significant (E) Half-life of cccDNA from RT-qPCR analyses was estimated from the simultaneous fitting of three replicates under each treatment strategy. C(t) is the % values of cccDNA at time ‘t’ post-treatment, C(0) is the % values of cccDNA at the start of the treatment. (5F) HBsAg across the time course for each treatment series. Statistical significance as determined using Student's t test. Data are presented as mean standard deviations (SD), **P<0.005, and ns=non-significant.
ETV is a nucleoside analog that prevents the viral reverse transcription and replication of new synthesized HBV DNAs, thereby preventing the replenishment of cccDNA by de novo formation. ETV was applied to HBV-infected cultures at a 100-fold IC50 (Langley, D. R., et al. (2007). Inhibition of Hepatitis B Virus Polymerase by Entecavir. Journal of virology 81, 3992-4001) thereby allowing for the measurement of cccDNA half-life under conditions in which levels are sustained only from the initial cccDNA pool. Cells were then harvested over a treatment time course, and DNA extracts were analyzed by Southern blot and qPCR assay. […] J Hepatol 69, 1231-1241). […] Enhanced cccDNA decay kinetics by F7 treatment was also confirmed by RT-PCR analysis (FIG. 5D). […] Thus, F7 and poly-U/UC PAMP impart the therapeutic decay of established cccDNA.
Reverse transcription quantitative real time qPCR (RT-qPCR) analysis: Total cellular RNAs were extracted from cells using TRIZOL reagent and the manufacturers protocol (Invitrogen). cDNA was synthesized from the purified RNA by both random and oligo (dT) priming using iScript select cDNA synthesis kit (Biorad, Inc.). For HBV cccDNA expression analysis, total DNA was extracted using the DNeasy kit (QIAGEN). For selective cccDNA PCR analysis, isolated DNAs were treated with 10 Units of T5 exonuclease (NEB) for 30 min in 10 μl of reaction volume in 37° C., followed by heat-inactivation at 95° C. for 5 min and 4-fold dilution with Nuclease-free water. For extra-cellular HBV DNA quantification, an external HBV plasmid standard was used to program the PCR (Ko, C., et al. (2018), supra).

With `C=C1[C@H](CO)[C@@H](O)C[C@@H]1n1cnc2c(=O)[nH]c(N)nc21` [ETV, Entecavir, reference compound] the “production and secretion of HBsAg” value was “Neither ETV nor X RNA treatment of cells had any effect” and the “cccDNA levels over treatment time course (Southern blot, qPCR)” value (ETV 500 nM, F7 10 μM, poly-U/UC 100 ng/ml) was “stably maintained cccDNA levels over the time course”.
